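Tested at 5 concentrations; 48 h exposure; 96-well plates; endpoints linearly interpolated, else capped at highest concentration. Here, GI50 denotes the concentration required for 50% inhibition of growth.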 The source made the active and inactive calls. Cut-off read from the data, not from the text of the source: active = GI50 up to about 1.1 µM and inactive = higher.
Columns and labels:
Assay in all cases: NCI anticancer screen, dose series, 48 h
A498 = test system: A498
DMS-114 = test system: DMS-114
DU-145 = test system: DU-145
HOP-62 = test system: HOP-62
HOP-92 = test system: HOP-92
HT-29 = test system: HT-29
Hs-578T = test system: Hs-578T
M14 = test system: M14
MCF7 = test system: MCF7
MDA-MB-435 = test system: MDA-MB-435
Malme-3M = test system: Malme-3M
NCI-H226 = test system: NCI-H226
NCI-H23 = test system: NCI-H23
NCI-H522 = test system: NCI-H522
OVCAR-3 = test system: OVCAR-3
SF-268 = test system: SF-268
SW-620 = test system: SW-620
T47D = test system: T47D
UO-31 = test system: UO-31
MDA-N = test system: MDA-N

Row | Compound | GI50 (A498) | GI50 (DMS-114) | GI50 (DU-145) | GI50 (HOP-62) | GI50 (HOP-92) | GI50 (HT-29) | GI50 (Hs-578T) | GI50 (M14) | GI50 (MCF7) | GI50 (MDA-MB-435) | GI50 (Malme-3M) | GI50 (NCI-H226) | GI50 (NCI-H23) | GI50 (NCI-H522) | GI50 (OVCAR-3) | GI50 (SF-268) | GI50 (SW-620) | GI50 (T47D) | GI50 (UO-31) | GI50 (MDA-N)
1 | CC[C@@]1(O)C(=O)OCc2c1cc1n(c2=O)Cc2cc3cc4c(cc3nc2-1)OCO4 | < 0.0143 µM (active) | < 0.001 µM (active) | < 0.001 µM (active) | < 0.001 µM (active) | 0.0026 µM (active) | 0.00472 µM (active) | 0.244 µM (active) | < 0.001 µM (active) | 0.01 µM (active) | 0.0149 µM (active) | 0.00497 µM (active) | 0.00168 µM (active) | 0.00114 µM (active) | 0.00133 µM (active) | 0.0551 µM (active) | < 0.001 µM (active) | 0.0032 µM (active) | 0.0104 µM (active) | 0.00116 µM (active) | –
2 | NC1=NCN(C2OC(CO)C(O)C2O)C(=O)N1 (stereo not drawn) | 6.85 µM (inactive) | 19 µM (inactive) | 148 µM (inactive) | 152 µM (inactive) | 391 µM (inactive) | 42.3 µM (inactive) | 23.4 µM (inactive) | 5.71 µM (inactive) | 9.84 µM (inactive) | 6.64 µM (inactive) | 10.9 µM (inactive) | 5.57 µM (inactive) | > 88.3 µM (inactive) | 5.26 µM (inactive) | 38.6 µM (inactive) | 15.1 µM (inactive) | 16.7 µM (inactive) | 15 µM (inactive) | 145 µM (inactive) | 7.87 µM (inactive)
3 | O=C1C=CC(=O)C2=C1[C@@H](O)C1CC=CC3C(=O)O[C@@H]2C31 (stereo partly drawn) | > 100 µM (inactive) | 22.7 µM (inactive) | – | > 100 µM (inactive) | 26.2 µM (inactive) | 24.3 µM (inactive) | – | 19.6 µM (inactive) | – | – | 19.1 µM (inactive) | 37.5 µM (inactive) | 27 µM (inactive) | 15.5 µM (inactive) | 21 µM (inactive) | 43.1 µM (inactive) | 22.4 µM (inactive) | – | 43.1 µM (inactive) | –
